Experimental data published in ChEMBL document CHEMBL1149855, “Dihydrobenzo[c]phenanthridine alkaloids from stem bark of Zanthoxylum nitidum” (J Nat Prod, 2008).
Active and inactive are the calls of the source.

What was measured:
Format in all cases: functional, cell-based
[1] = test system: NCI-H460; test: Cytotoxicity against human NCI-H460 cells up to 29.2 ug/mL after 72 hrs by MTS reduction assay
[2] = test system: MCF7; test: Cytotoxicity against human MCF7 cells up to 29.2 ug/mL after 72 hrs by MTS reduction assay
[3] = test system: SF-268; test: Cytotoxicity against human SF268 cells up to 29.2 ug/mL after 72 hrs by MTS reduction assay

Measured: Activity

COc1ccc2c(c1OC)[C@@H](CC1=C[C@H]3[C@H](C(C)C)CC[C@](C)(OC)[C@H]3CC1)N(C)c1c-2ccc2cc3c(cc12)OCO3
inactive: [1] | [2] | [3]

COc1ccc2c(c1OC)[C@H](CC1=C[C@H]3[C@H](C(C)C)CC[C@](C)(OC)[C@H]3CC1)N(C)c1c-2ccc2cc3c(cc12)OCO3
inactive: [1] | [2] | [3]

COc1ccc2c(c1OC)[C@@H](CC1=C[C@@H]3[C@@H](CC1)[C@@](C)(OC)CC[C@H]3C(C)C)N(C)c1c-2ccc2cc3c(cc12)OCO3
inactive: [1] | [2] | [3]

COc1ccc2c(c1OC)[C@@H](CC1=C[C@@H]3[C@@H](CC1)[C@](C)(OC)CC[C@H]3C(C)C)N(C)c1c-2ccc2cc3c(cc12)OCO3
inactive: [1] | [2] | [3]

COc1ccc2c(c1OC)[C@H](CC1=C[C@@H]3[C@@H](CC1)[C@](C)(OC)CC[C@H]3C(C)C)N(C)c1c-2ccc2cc3c(cc12)OCO3
inactive: [1] | [2] | [3]
